# Assay results reported in US20070269892A1, “FORMULATIONS FOR INTRACELLULAR DELIVERY dsRNA” (NASTECH PHARMACEUTICAL COMPANY INC., priority 2006, published 2007).
# PEG10k = poly(ethylene glycol) of 10 kD conjugated to the peptide; PEG2k = PEG 2k (PEG2k-maleimide); Mal = maleimide
# Assays:
# [1] = Particle size analysis of siRNA/peptide polymer formulations; type: physicochemical; conditions: 24 hours after formulation, siRNA 0.8 μM/peptide polymers, N/P=2
# Method: Formulations for particle size analysis were prepared in Hepes 11 mM pH7.4, at a siRNA concentration of 0.8 uM (11.59 μg/ml) and then diluted into OPTI-MEM. For nanoparticle size analysis of siRNA/peptide polymers, we used 1 ug RNA/0.8 nmols peptide polymer (based on monomer). The total vol of sample was 1 ml containing 50 ug RNA and 40 nmol peptide polymer in Hepes buffer mannitol (5 mM HEPES, 5% mannitol, pH 7.5) (Filter). The particle size analysis was performed on a Zeta Plus/Zeta potential analyzer.
# Briefly, buffer was added first and then concentrated siRNA was added followed by votexing for 3 seconds (at full speed). The peptide polymer was then added followed by votexing for an additional 6 seconds (at full speed). Formulations were maintained at room temperature for 10 minutes. In a 96-well plate format, formulations were then diluted 20× for a final siRNA concentration of 10 nM (6.25 μl into 118.75 μl of OPTI-MEM) or 2× for a final concentration of 100 nM (62.5 μl of formulation into 62.5 μl OPTI-MEM). After dilution, formulations were mixed gently. For positive control preparation, 0.5 μl of HiPerFect was diluted into 12.5 μl of OPTI-MEM and 0.5 μl of siRNA into 12.5 μl of OPTI-MEM, respectively; and incubated at room temperature for 5 minutes, and then combined diluted siRNA and diluted HiPerFect, and incubated at room temperature for 15 minutes. A formulation pH of about 7.4 was chosen in order to minimize reduction of peptide that is polymerized through cycteine disulfide bonds.
# Particle size was measured 24 hours after formulation of siRNA 0.8 μM/peptide polymers (N/P=2). […] In summary, all formulation tested in this study formed particles at about or less than about 100 nm.
# 9L/LacZ cells [2] = experiment: Cellular uptake of peptide/siRNA condensates (fluorescence intensity); type: cell-based; conditions: study 2; NT peptides at 100 nM, N/P=2 with pluronic F127; PN0593/PN0594 at varying N/P
# Method: Cells are plated per well in 24-well plates the day before transfection in complete media. The siRNA is labeled, for example with Cy-5 conjugate. The peptide/siRNA condensates are added to cells previously washed with phosphate buffered saline (PBS). Cells were transfected for three hours at 37° C., 5% CO2. Cells were washed with PBS, treated with trypsin, and then analyzed by flow cytometry.
# siRNA cell-uptake was measured by the intensity of intracellular Cy5 fluorescence. The cell-uptake assay is used to determine the percentage of cells that contain the Cy5-conjugated siRNA. Mean Fluorescence Intensity (MFI) is used to determine the relative mean quantity of Cy5-conjugated siRNA that entered the cells.
# 9L/LacZ cells [3] = experiment: Micro BCA total protein assay (toxicity); type: cell-based; conditions: study 1, 100 nM, N/P=2
# Method: For study 1 and 2, 7,000-10,000 9L/LacZ cells (passage 5-25) were plated in cell culture media in each well of a 96-well plate and grown overnight. Cells (in 75 μl of media) were transfected by adding 25 μl of each formulation to be tested; 4 hours thereafter 100 μl of fresh media is added to each well, which media is replaced with 100 μl of fresh media approximately 16 hours later. […] Cells were harvested 3 days after transfection by the addition of 50 μl of lysis buffer for β-galactosidase and Micro BCA assays.
# For study 1 and 2, a Micro BCA assay (Pierce Chemical Company, Rockford, Ill.) was performed in order to measure total protein concentration, as follows: 9L/LacZ cells were washed 1× with phosphate buffered saline (PBS). Then, 50 μl of M-PER® Reagent was added to each well and incubated for 15 minutes at room temperature. After incubation, 10 μl of each lysate was transferred to a new well (using a 96-well plate format) containing 140 μl of dH20, and then 150 μl of Micro BCA working solution was added. The plates were covered, incubated at 37° C. for 2 hours and then the absorbance measured at 562 nm was recorded.
# Lac-Z = conditions: study 2, 100 nM, N/P=2, 0.1% pluronic F127
# Method: The LacZ assay was performed three days post-transfection. Cells were rinsed with phosphate buffers saline (PBS) after removal of cell media. The PBS was aspirated and the cells were lysed by the addition of 50 μl M-PER™ to each well and incubating the cells for 15 minutes while gently shaking. Following cell lysis, 10 μl of cell lysate was removed from each well to perform a total protein assay (micro BCA kit, Pierce). In order to measure LacZ activity, 30 μl of cell lysate was transferred to a new plate and 30 μl of ALL-IN-ONE™ beta-galactosidase (β-gal) was added to each well of the new plate. The new plate was covered to avoid light exposure and incubated for 30 minutes at 37° C. Following the 30 minute incubation, the absorbance was read at 405 nm with a μQuant plate reader (Bio-Trek Instrument) to measure LacZ activity.
# For study 1 and 2, 7,000-10,000 9L/LacZ cells (passage 5-25) were plated in cell culture media in each well of a 96-well plate and grown overnight. […]
# For study 1 and 2, a Micro BCA assay (Pierce Chemical Company, Rockford, Ill.) was performed in order to measure total protein concentration, as follows: 9L/LacZ cells were washed 1× with phosphate buffered saline (PBS). […] The plates were covered, incubated at 37° C. for 2 hours and then the absorbance measured at 562 nm was recorded. […]
# [4] = Glutathione (GSH) mediated siRNA release from disulfide cross-linked peptide siRNA particles; type: physicochemical; conditions: 5 ug siRNA/4 nmols peptide polymer, GSH 0.5 mg
# Method: In a separate experiment, glutathione (GSH) was added to disulfide cross-linked peptide siRNA particles (which may be referred to as nanoparticles) in order to detect siRNA release from disulfide cross-linked peptide siRNA condensates. The reduction of the peptide polymers, leading to dissociation and release of siRNA was monitored by continues measurement of the fluorescence intensity of […] over 15 minutes. Briefly, siRNA nanoparticles (N/P: 5 ug siRNA/4 nmols peptide polymer) were treated with reducing agent glutathione (GSH, 0.5 mg scale) and thiazole orange (0.1 ug) in 1 ml sample in HBM buffer pH 7.5. The fluorescence intensity was monitored over 15 min at Ex 498 nm and Emi 546 nm. Samples tested were (1) siRNA and Thiazole orange (No peptide polymer, No GSH), (2) Peptide polymer, siRNA and Thiazole orange (No GSH), and (3) Peptide polymer, siRNA, Thiazole orange and GSH.
# G1498 siRNA = experiment: SYBR-gold dye displacement assay of peptide binding to siRNA, with Scatchard analysis; conditions: for Bmax (Scatchard Analysis) / Kd (Scatchard Analysis) / Max Bound siRNA: siRNA 10 μg/mL; for Max Bound siRNA: peptide:siRNA charge ratio 0.05 to 10; for Relative affinity of binding to siRNA: comparison within Table 7
# Method: Peptides (see Table 4, Example 2) are suspended in Hyclone nuclease free water. Test dilutions of this peptide stock are made in sterile, Nuclease-free eppendorf tubes at a 2× final concentration and buffered to pH 7.4 with 20 mM Phosphate. Nine concentrations of each peptide were made, corresponding to charge ratios of approximately 0.05 to 10. The molar ratios and μg/mL and μM concentrations of each peptide corresponding to these charge ratios are detailed in Tables 1, 2 and 3.
# SYBR-gold nucleic acid binding dye stock, a 10,000× concentrate, is supplied by Invitrogen (Carlsbad, Calif.) and stored at −20° C. The concentrate is allowed to equilibrate to room temperature before diluting 1 to 100 in Hyclone nuclease free water. This is then diluted 1 to 10 in the experimental plate for a final concentrate of 10× for the assay. This is the optimal dilution to achieve linear binding to siRNA duplex at a concentration range of up to 50 μg/mL concentration. For higher concentrations, the amount of dye to use may be further optimized.
# Samples are mixed directly in the 384 well analysis plate. First 5 μL SYBR-gold dye is pipetted into each well with a multichannel pipette, touching the tip to the bottom of the well to draw out the solution completely. Then 22.5 μL of 2× peptide solution is added with a single channel pipette. Since SYBR-gold will not bind to peptide (and peptide samples without siRNA will verify this assumption), there will be no bleaching effect on fluorescence. Finally, 22.5 μL of 2× siRNA is added with a multichannel pipette. The plate is covered immediately with foil and tapped gently to mix and draw down any droplets on the side of the well.
# Fluorescence is measured using the SpectraMax fluorescent plate reader from Molecular Devices (Sunnyvale, Calif.). Plate settings include shaking before reading, one read per well, with excitation wavelength of 495 nm and emission wavelength of 537 nm. The plate is read within 30 minutes of the addition of the siRNA.
# Scatchard Plot is a plot of peptide binding ([peptide]bound/[peptide]free) vs. [peptide]bound. The slope of the linear regression of this plot is −1/Kd and Bmax is the […]. Since the concentration of free and bound peptide cannot be measured directly, indirect measurements of siRNA is used for the calculation. Free siRNA is determined from measured fluorescence using the standard curve. Bound siRNA is determined from the standard curve by mass balance from the known initial siRNA concentration (10 μg/mL). Bound peptide is calculated from bound siRNA by assuming the (siRNA:Peptide) bound molar ratio is equal to the (siRNA:Peptide) charge ratio for a single molecule pairing. From this calculated bound peptide amount, the free peptide is calculated by mass balance.
# The relative binding of various peptides to siRNA via a rapid screen is assessed by indirect measurement of the displacement of SYBR-gold nucleic acid binding dye. A buffered mixture of siRNA, peptide and SYBR-gold is prepared in the measurement plate in duplicate such that the peptide and SYBR-gold dye undergoes simultaneous competitive binding of the siRNA. The concentration of siRNA is fixed at 10 μg/mL and is combined with a titration of each peptide ranging in a concentration that corresponds to a peptide:siRNA charge ratio between 0.05 to 10. Since SYBR-gold dye only fluoresces when bound to siRNA, peptide binding to the siRNA is inhibits binding of the dye and consequently reduces the fluorescence. Therefore, the amount of fluorescence correlates inversely to the binding of the peptide to the siRNA.
Bmax (Scatchard Analysis) (G1498 siRNA) [μMbound/μMfree],Kd (Scatchard Analysis) (G1498 siRNA) [µM⁻¹],Max Bound siRNA (G1498 siRNA) [% mole %],Substance,Particle size [1],Uptake (9L/LacZ cells [2]),also measured
–,–,–,Cys-Trp-(Lys)4-Cys (CWKKKKC) [NT-18],about 105 nm,good uptake,Toxicity (total protein expression) (9L/LacZ cells [3]): no apparent toxicity; Knockdown of gene expression (Lac-Z): about 20%
–,–,–,Cys-Trp-(Lys)4-Cys-(Lys)4-Cys (CWKKKKCKKKKC) [NT-22],about 90.8 nm,–,–
–,–,–,Cys-Trp-(Lys)4-His-(Lys)4-Cys (CWKKKKHKKKKC) [NT-23],about 65.7 nm,–,–
–,–,–,Cys-Trp-(Lys)6-Cys (CWKKKKKKC) [NT-19],about 78.7 nm,good uptake,Toxicity (total protein expression) (9L/LacZ cells [3]): no apparent toxicity; Knockdown of gene expression (Lac-Z): about 27%
–,–,–,Cys-Trp-(Lys)8-Cys (CWKKKKKKKKC) [NT-20],about 67.6 nm,good uptake,–
–,–,–,Cys-Trp-(Lys)10-Cys (CWKKKKKKKKKKC) [NT-21],about 55.7 nm,good uptake,Reduction of peptide polymer by GSH with siRNA release [4]: exception
–,–,–,Cys-Trp-His-(Lys)4-His-(Lys)4-Cys (CWHKKKKHKKKKC) [NT-24],about 82.2 nm,–,Toxicity (total protein expression) (9L/LacZ cells [3]): no apparent toxicity
–,–,–,Cys-Trp-His-(Lys)4-His-(Lys)4-His-Cys (CWHKKKKHKKKKHC) [NT-25],about 64.6 nm,–,–
–,–,–,NH2-PLKPLKPLKPLKPLKPLK-amide (H-PLKPLKPLKPLKPLKPLK-NH2) [PN0594],–,very low,–
–,–,–,NH2-VRLPPPVRLPPPVRLPPP-amide (H-VRLPPPVRLPPPVRLPPP-NH2) [PN0593],–,very low,–
0.241,0.326,39,PEG2k-Mal-(Lys)10-amide ({PEG2k-Mal}-KKKKKKKKKK-NH2) [PN0933-2],–,–,–
0.560,0.250,48,PEG2k-Mal-(Lys)15-amide ({PEG2k-Mal}-KKKKKKKKKKKKKKK-NH2) [PN0930-2],–,–,–
2.077,0.150,59,PEG2k-Mal-(Lys)25-amide [PN0925-2],–,–,–
0.992,0.130,47,PEG10k-Mal-(Lys)15-amide ({PEG10k-Mal}-KKKKKKKKKKKKKKK-NH2) [PN0931-2],–,–,–
–,–,58,PEG10k-Mal-(Lys)30-amide [PN0907-2],–,–,–
0.198,0.771,68,"RRRRRRRRR [PN0861-2, Ac-(Arg)9-amide]",–,–,Relative affinity of binding to siRNA (G1498 siRNA): greatest affinity
0.495,0.929,64,"RRRRRRRRRRRRRRRRRR [PN0859-2, Ac-(Arg)18-amide]",–,–,Relative affinity of binding to siRNA (G1498 siRNA): greatest affinity

Substance,Bmax (Scatchard Analysis) (G1498 siRNA) [μMbound/μMfree],Kd (Scatchard Analysis) (G1498 siRNA) [µM⁻¹],Max Bound siRNA (G1498 siRNA) [% mole %],Particle size [1],Uptake (9L/LacZ cells [2]),also measured
"KKKKKKKKK [PN0860-2, Ac-(Lys)9-amide]",0.379,0.204,43,–,–,–
"KKKKKKKKKKKKKKKKKK [PN0858-1, Ac-(Lys)18-amide]",0.828,0.348,66,–,–,–
"KKKKKKKKKKKKKKKKKKKK [PN0924-1, NH2-(Lys)20-amide]",0.883,0.426,71,–,–,–
